Tests used:
Settings in all cases: Compound concentration 1.0 uM
[1] = target: Activated CDC42 kinase 1 (Homo sapiens) (UniProt Q07912)
[2] = target: 5'-AMP-activated protein kinase catalytic subunit alpha-2 (Homo sapiens) (UniProt P54646)
[3] = target: Protein-tyrosine kinase 6 (Homo sapiens) (UniProt Q13882)
[4] = target: Focal adhesion kinase 1 (Homo sapiens) (UniProt Q05397)
[5] = target: Fibroblast growth factor receptor 3 (Homo sapiens) (UniProt P22607)
[6] = target: Tyrosine-protein kinase Fyn (Homo sapiens) (UniProt P06241)
[7] = target: eIF-2-alpha kinase GCN2 (Homo sapiens) (UniProt Q9P2K8)
[8] = target: T1, Serine/threonine-protein kinase ICK (Homo sapiens) (UniProt Q9UPZ9)
T1 sequence (whole entry): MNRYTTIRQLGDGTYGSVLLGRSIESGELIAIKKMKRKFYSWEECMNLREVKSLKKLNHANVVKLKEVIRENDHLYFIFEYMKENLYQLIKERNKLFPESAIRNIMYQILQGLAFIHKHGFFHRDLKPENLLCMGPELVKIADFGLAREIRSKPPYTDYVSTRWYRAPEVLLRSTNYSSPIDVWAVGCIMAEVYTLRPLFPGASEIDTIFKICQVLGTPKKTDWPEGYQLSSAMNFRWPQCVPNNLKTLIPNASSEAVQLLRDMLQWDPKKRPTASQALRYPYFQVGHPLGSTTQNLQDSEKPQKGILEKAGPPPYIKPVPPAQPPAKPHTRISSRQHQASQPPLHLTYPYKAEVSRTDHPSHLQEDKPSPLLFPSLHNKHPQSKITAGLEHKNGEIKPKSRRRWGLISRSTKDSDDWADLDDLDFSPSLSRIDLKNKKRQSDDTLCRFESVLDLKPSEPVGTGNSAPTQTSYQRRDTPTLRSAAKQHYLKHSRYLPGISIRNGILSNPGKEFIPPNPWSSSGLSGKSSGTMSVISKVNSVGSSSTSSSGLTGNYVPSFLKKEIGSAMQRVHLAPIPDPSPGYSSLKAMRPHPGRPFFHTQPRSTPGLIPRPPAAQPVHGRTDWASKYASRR

[9] = target: T2, Inhibitor of nuclear factor kappa-B kinase subunit alpha (Homo sapiens) (UniProt O15111)
T2 sequence (whole entry): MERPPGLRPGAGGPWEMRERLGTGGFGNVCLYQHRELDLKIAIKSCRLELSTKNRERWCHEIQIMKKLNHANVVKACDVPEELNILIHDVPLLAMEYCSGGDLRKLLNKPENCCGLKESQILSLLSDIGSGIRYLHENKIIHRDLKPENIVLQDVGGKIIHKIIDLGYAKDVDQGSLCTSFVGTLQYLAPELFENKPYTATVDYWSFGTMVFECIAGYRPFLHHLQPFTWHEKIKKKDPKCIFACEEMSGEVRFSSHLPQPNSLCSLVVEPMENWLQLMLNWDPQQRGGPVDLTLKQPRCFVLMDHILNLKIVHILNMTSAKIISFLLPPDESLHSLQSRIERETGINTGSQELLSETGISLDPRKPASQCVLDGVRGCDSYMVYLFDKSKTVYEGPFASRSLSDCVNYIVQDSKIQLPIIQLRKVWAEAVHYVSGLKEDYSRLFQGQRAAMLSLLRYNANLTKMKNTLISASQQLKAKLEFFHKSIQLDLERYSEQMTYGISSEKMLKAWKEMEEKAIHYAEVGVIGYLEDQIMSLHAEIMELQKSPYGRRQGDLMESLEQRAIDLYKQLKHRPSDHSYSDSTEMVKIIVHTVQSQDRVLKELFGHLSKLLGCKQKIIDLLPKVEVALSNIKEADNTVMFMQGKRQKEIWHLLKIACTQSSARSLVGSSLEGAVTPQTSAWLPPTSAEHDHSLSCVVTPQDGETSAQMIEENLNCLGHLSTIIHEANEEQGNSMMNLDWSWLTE

[10] = target: Mitogen-activated protein kinase kinase kinase kinase 5 (Homo sapiens) (UniProt Q9Y4K4)
[11] = target: Serine/threonine-protein kinase Nek6 (Homo sapiens) (UniProt Q9HC98)
[12] = target: PAS domain-containing serine/threonine-protein kinase (Homo sapiens) (UniProt Q96RG2)
[13] = target: Proto-oncogene tyrosine-protein kinase receptor Ret (Homo sapiens) (UniProt P07949)
[14] = target: T3, Receptor-interacting serine/threonine-protein kinase 1 (Homo sapiens) (UniProt Q13546)
T3 sequence (whole entry): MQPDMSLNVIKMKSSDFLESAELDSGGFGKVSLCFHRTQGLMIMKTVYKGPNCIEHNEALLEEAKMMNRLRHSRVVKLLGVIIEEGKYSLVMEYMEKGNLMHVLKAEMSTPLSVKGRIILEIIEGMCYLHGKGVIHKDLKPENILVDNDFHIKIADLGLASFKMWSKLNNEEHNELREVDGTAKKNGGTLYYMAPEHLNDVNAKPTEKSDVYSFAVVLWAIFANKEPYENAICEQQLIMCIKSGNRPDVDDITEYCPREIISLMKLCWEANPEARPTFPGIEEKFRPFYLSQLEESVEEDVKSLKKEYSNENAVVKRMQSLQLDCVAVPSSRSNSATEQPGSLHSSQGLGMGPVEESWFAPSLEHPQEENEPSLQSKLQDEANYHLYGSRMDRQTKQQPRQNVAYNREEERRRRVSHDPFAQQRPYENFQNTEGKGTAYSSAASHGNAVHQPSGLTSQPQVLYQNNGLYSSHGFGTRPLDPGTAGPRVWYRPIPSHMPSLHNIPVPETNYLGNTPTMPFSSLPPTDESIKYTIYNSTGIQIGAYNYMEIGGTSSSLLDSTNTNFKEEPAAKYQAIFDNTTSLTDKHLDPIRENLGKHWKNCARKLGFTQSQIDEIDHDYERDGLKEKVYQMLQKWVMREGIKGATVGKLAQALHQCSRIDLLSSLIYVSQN

Measured: % residual kinase activity

Sequence of eIF-2-alpha kinase GCN2 (Homo sapiens) (Q9P2K8 whole entry): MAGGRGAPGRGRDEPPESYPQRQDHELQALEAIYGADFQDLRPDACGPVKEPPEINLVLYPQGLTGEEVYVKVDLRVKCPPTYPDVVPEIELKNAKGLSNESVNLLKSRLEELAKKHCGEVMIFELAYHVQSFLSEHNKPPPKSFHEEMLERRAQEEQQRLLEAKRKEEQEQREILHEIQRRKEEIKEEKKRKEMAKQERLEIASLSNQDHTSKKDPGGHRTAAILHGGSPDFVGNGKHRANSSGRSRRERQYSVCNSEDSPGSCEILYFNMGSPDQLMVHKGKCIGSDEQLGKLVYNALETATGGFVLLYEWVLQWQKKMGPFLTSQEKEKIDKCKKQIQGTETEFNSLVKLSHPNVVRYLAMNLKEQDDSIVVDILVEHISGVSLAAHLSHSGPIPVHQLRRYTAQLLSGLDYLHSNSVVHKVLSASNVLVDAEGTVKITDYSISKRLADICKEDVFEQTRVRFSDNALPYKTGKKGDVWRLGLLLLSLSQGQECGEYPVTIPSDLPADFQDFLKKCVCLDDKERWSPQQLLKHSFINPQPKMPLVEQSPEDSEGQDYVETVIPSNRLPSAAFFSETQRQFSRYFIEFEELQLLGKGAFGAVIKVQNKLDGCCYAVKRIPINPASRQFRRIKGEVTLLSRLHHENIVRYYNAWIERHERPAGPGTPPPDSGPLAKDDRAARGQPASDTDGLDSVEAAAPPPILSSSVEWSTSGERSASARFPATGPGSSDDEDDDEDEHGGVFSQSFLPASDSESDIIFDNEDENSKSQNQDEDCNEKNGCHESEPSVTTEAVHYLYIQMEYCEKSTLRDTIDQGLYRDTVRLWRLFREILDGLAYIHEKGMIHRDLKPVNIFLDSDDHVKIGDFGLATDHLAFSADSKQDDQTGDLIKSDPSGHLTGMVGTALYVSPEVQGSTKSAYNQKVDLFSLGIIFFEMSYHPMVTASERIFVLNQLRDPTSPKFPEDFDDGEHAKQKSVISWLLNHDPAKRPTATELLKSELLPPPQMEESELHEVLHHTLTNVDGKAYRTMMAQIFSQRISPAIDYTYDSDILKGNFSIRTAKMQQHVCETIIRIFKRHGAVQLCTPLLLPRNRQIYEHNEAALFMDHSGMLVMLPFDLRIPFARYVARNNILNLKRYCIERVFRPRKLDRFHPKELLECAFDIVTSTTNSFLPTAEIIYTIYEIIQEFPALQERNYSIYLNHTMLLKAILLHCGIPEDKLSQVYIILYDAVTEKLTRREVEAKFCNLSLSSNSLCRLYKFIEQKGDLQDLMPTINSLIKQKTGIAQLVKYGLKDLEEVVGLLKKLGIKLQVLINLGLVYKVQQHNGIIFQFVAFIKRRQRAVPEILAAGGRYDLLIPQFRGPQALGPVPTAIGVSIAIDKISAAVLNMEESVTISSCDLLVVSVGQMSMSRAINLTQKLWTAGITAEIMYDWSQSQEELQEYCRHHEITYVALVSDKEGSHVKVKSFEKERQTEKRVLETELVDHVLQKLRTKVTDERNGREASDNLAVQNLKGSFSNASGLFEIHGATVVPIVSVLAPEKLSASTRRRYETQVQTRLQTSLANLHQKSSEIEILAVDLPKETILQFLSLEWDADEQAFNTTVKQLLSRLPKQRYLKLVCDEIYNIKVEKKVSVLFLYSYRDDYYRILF
Sequence of Activated CDC42 kinase 1 (Homo sapiens) (Q07912 whole entry, looked up): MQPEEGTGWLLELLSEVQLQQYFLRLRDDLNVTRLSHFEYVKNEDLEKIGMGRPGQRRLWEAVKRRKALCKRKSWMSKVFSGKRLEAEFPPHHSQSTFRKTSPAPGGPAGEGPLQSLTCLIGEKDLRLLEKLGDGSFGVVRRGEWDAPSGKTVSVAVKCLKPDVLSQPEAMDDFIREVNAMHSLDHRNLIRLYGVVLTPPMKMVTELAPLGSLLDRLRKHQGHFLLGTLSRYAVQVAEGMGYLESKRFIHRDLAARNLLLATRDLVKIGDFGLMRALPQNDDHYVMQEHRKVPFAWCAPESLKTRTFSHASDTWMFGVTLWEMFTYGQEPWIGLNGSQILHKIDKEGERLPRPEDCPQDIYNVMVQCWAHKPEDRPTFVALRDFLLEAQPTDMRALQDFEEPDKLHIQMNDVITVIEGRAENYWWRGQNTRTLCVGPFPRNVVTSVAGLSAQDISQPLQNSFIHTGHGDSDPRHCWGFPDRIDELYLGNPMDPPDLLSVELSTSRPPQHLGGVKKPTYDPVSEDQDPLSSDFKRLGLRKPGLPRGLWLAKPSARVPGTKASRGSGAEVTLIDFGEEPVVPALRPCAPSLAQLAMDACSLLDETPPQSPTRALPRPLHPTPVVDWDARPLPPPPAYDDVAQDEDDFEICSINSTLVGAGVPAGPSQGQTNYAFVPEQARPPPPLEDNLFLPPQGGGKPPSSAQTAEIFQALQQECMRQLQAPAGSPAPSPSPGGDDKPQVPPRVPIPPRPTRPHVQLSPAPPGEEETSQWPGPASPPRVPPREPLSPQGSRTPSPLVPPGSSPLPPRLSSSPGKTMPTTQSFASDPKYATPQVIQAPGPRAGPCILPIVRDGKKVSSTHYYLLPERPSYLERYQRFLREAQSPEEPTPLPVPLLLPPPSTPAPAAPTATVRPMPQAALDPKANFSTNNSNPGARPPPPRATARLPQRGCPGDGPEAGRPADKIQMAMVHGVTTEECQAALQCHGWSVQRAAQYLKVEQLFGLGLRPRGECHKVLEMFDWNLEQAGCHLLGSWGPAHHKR
Sequence of 5'-AMP-activated protein kinase catalytic subunit alpha-2 (Homo sapiens) (P54646 whole entry, looked up): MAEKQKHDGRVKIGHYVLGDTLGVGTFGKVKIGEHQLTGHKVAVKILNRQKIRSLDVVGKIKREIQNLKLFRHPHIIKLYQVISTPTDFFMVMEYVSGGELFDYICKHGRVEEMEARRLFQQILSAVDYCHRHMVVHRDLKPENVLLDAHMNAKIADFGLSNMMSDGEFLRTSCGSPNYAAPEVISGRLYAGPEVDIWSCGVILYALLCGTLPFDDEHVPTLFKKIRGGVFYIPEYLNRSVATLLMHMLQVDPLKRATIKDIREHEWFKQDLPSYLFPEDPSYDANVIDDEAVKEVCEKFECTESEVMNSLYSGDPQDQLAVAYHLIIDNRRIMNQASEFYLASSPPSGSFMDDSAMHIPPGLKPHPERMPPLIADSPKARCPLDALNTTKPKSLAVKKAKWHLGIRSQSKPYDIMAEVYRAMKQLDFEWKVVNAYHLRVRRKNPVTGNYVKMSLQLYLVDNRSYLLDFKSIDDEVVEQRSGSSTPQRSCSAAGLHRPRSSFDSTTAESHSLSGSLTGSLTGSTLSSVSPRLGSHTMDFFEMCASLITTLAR
Sequence of Proto-oncogene tyrosine-protein kinase receptor Ret (Homo sapiens) (P07949 whole entry): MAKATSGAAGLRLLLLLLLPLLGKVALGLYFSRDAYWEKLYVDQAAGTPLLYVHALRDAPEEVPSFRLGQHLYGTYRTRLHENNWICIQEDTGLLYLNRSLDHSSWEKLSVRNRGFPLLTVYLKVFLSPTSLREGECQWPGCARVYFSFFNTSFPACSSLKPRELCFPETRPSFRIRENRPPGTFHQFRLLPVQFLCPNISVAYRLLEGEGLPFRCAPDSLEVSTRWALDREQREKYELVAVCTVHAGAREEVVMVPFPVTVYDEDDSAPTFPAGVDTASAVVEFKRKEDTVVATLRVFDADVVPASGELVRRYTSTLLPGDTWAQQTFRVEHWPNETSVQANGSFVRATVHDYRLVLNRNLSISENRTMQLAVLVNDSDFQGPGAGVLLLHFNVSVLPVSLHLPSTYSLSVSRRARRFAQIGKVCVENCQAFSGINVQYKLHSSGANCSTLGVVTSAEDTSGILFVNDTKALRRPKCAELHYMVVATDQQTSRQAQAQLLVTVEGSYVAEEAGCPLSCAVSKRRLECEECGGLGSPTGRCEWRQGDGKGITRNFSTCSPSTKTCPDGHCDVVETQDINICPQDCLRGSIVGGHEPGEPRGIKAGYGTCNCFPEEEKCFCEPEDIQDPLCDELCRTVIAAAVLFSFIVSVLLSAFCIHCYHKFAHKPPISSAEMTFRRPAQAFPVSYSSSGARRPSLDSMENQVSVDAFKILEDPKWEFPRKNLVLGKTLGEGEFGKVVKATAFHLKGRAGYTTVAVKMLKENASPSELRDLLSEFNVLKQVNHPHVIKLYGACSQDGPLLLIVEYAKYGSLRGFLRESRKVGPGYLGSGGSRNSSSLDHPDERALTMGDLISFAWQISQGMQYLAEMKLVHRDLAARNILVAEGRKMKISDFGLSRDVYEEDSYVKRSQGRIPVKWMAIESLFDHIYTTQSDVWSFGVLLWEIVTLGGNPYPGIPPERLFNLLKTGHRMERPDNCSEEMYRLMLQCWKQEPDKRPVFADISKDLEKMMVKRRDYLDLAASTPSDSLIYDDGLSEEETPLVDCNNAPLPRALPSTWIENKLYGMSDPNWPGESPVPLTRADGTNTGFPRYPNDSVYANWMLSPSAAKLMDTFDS
Sequence of Serine/threonine-protein kinase Nek6 (Homo sapiens) (Q9HC98 whole entry, the tested form may be a part): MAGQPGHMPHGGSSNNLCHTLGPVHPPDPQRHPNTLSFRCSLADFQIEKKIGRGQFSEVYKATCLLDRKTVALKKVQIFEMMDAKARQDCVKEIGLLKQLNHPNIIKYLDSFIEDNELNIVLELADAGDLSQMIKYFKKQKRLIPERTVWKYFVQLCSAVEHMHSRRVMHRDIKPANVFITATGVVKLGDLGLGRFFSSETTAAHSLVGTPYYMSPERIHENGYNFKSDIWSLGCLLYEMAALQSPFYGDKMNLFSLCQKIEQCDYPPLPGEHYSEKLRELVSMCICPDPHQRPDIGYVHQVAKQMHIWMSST

CN1CCN(c2cnc3c(C4CCN(C(=O)c5ccc(OC(F)(F)F)cc5N)CC4)ncnc3c2)CC1 [BAY-885]
inactive: [1] 101% | [2] 109% | [3] 108% | [4] 101% | [5] 106% | [6] 129% | [7] 98% | [8] 93% | [9] 99% | [10] 99% | [11] 125% | [12] 107% | [13] 122% | [14] 100%
